Data from patent US7311901B2, “Amphiphilic block copolymer and polymeric composition comprising the same for drug delivery” (Samyang Corporation, priority 2003, dated 2007).

Tested on: Taxol®-pretreated cancer cells
Experiment: IC50 of paclitaxel for Taxol®-pretreated cancer cells
Type: cell-based, human
Details: Taxol®-pretreated vs native cancer cells; data not shown

- IC50 of paclitaxel: increased significantly
Structure (SMILES): CC(=O)O[C@H]1C(=O)[C@@]2(C)[C@H]([C@H](OC(=O)c3ccccc3)[C@]3(O)C[C@H](OC(=O)[C@H](O)[C@@H](NC(=O)c4ccccc4)c4ccccc4)C(C)=C1C3(C)C)[C@]1(OC(C)=O)CO[C@@H]1C[C@@H]2O [paclitaxel]
